Results from a melting point compilation (Tetko et al.; mined from patent text by program, amines drawn as free bases though some values may be those of a salt).

| melting point | SMILES |
| --- | --- |
| 116 to 118 °C | C[C@@H]1CN(C(=O)OC(C)(C)C)Cc2cc3cc(Br)c(F)cc3n21 |
| 199 to 201 °C | Nc1n[nH]c2cc(C(=O)C=NO)ccc12 |
| 130 to 131 °C | COc1ccc(N2CCN(CCn3c(=O)[nH]c4ccsc4c3=O)CC2)cc1 |
| 250 °C | COc1ccc(C(=O)Nc2ccc(C(=O)O)cc2)cc1C(C)(C)C |
| 319 to 322 °C | N=C(NO)c1ccc(-c2ccc(O)c(-c3nc4cc(C(=N)NO)ccc4[nH]3)c2)cc1 |
| 127 to 128 °C | C=Cc1ccc([Si](C)(C)C)c(C(=O)NCC)c1Cl |
| 195 to 196 °C | CCCCOc1c(CNC(=O)OC(C)(C)C)n(CC(C)C)c(=O)c2ccc(-c3nc(C(=O)O)cs3)cc12 |
| 264 to 266 °C | COc1cc2c(cc1OC)CN(c1nc(N)c3cc(OC)c(OC)cc3n1)C2 |
| 91 to 93 °C | NCc1cn2ccccc2n1 |
| 87.5 to 88.5 °C | COc1cccnc1CSCCNC(=C[N+](=O)[O-])SC |
| 160 to 162 °C | NC(Cc1noc2ccccc12)=NO |
| 207 to 209 °C | C#CC1(CO)C=CC(n2cc(C)c(=O)[nH]c2=O)O1 (configuration not stated) |
| 158 to 159 °C | O=C(O)CCCCCCCOc1nc(-c2ccccc2)c(-c2ccccc2)n1-c1ccccc1 |
| 140 to 141 °C | CC(C)Cc1ncn(C(C)C(O)(Cc2nc[nH]n2)c2ccc(Cl)cc2)n1 (configuration not stated) |
| 142 to 143 °C | COc1cc(C)nc(-n2cncn2)n1 |
| 124 to 125 °C | CCCCCCCCCCCC(=O)c1ccc(-c2ccc(OC)c(F)c2)cc1 |
| 215 to 218 °C | COc1cc2c(Nc3ccc(Cl)cc3F)ncnc2cc1OCc1ccccn1 |
| 233 to 234 °C | Cc1cnoc1-c1ccc2c(c1)c1cc(-c3ccc(Cl)cc3Cl)c(=O)n(C)c1n2C |
| 192 to 194 °C | CC(C)C#CC1(C(F)(F)F)OCC(=O)Nc2ccc(F)c(F)c21 (configuration not stated) |
| 158 °C | CNCC(O)c1cc(C(F)(F)F)nc2c(C(F)(F)F)cccc12 (configuration not stated) |
| 148 to 150 °C | CN(C)CCCNC(=O)c1ccc(-c2ccc3nnn(Cc4ccc5ncccc5c4)c3n2)cc1F |
| > 295 °C | Nc1cc(=O)[nH]c(=O)n1C1CCc2ccccc21 (configuration not stated) |
| 73 to 75 °C | CCOC(=O)c1c(C)nc(Cl)c([N+](=O)[O-])c1N |
| 192 to 193 °C | CC(C)c1cc(NC(=O)N2CCN(c3ccnc(-c4cccc(F)c4F)n3)CC2)nnc1Cl |

| melting point | SMILES |
| --- | --- |
| 212 °C | CC(c1ccc(C(=O)O)cc1)c1cc2cc(C(F)(F)F)ccc2n1S(=O)(=O)c1cccc(C(C)(C)C)c1 (racemic) |
| 169 to 170 °C | O=C1CC2CSc3sc(Br)cc3C2=NN1c1ccc(Cl)cc1 (configuration not stated) |
| 157 °C | O=[N+]([O-])c1c(NCCO)cc(C(O)CSCC(O)c2cc(NCCO)c([N+](=O)[O-])c(NCCO)c2)cc1NCCO (configuration not stated) |
| 249 to 251 °C | CSc1nc(-c2cc(C(C)(C)C)c(O)c(C(C)(C)C)c2)c[nH]1 |
| 170 to 173 °C | O=C(OCc1ccc[nH]c1=O)c1ccc(F)cc1 |
| 240 to 241 °C | N=C(Nc1ccc([N+](=O)[O-])cc1)c1ccccc1 |
| 152 to 155 °C | CCC(CC)c1ccc(Cl)c2nc3n(c12)CCCCN3c1ccc(C)cc1Br |
| 179 to 181 °C | CCOC(=O)COc1ccc(C(=O)Nc2ccccc2Sc2ccccc2-c2nnn[nH]2)cc1OC |
| 229 to 231 °C | COc1ccc(-c2cnn3cc(C(=O)O)cnc23)cc1OC |
| 142 to 143 °C | Cc1oc(-c2cc3ccccc3s2)nc1COc1ccc(CCCn2ccnc2)cc1 |
| 152 to 154 °C | CC(=O)c1ccc2c(c1)oc(=O)n2N1CCC(c2noc3cc(F)ccc23)CC1 |
| 121 to 123 °C | Cc1cc(C)nc(N(C(=O)Cl)c2cc(Cl)ccc2Cl)n1 |
| 148 to 151 °C | CC(=O)CCn1nc(C)c(-c2ccc3c(c2)NC(=O)CO3)c1-c1ccc(F)cc1 |
| 249 °C | CCC(=O)C1=C(O)CC(c2c(C)c([N+](=O)[O-])c(C)c([N+](=O)[O-])c2C)CC1=O (configuration not stated) |
| 76 °C | CCN(CC)C(=O)Oc1cc(-c2ccncc2)nc2ccccc12 |
| 58 to 60 °C | CN1C(=O)c2ccccc2OC1(C)COc1ccc(CC2SC(=O)NC2=O)cc1 (configuration not stated) |
| 180 to 182 °C | O=C(CN1C(=O)c2ccccc2S1(=O)=O)Nc1ccccc1 |
| 252 °C | CCOC(=O)c1c(N)n(CC)c2nc(Cl)ccc2c1=O |
| 186 °C | Cn1cnc(COc2nc3c(-c4ccccc4F)nncn3c2-c2ccccc2)n1 |
| 151 °C | CC12CCC(=O)C=C1CCC1C2CCC2(C)C(CO)CCC12 (configuration not stated) |
| 113 to 115 °C | COC(=O)C=Cc1cccc2[nH]ccc12 |
| 113 to 114 °C | COc1ccc(N2C(=O)C(=CN(C)C)c3ccccc32)cc1F |
| 120 to 132 °C | CSc1nc(Cc2ccccc2[N+](=O)[O-])n[nH]1 |
| 116 to 118 °C | OC(Cc1ccc(Cl)cc1)(Cn1cncn1)Cn1cncn1 |

| melting point | SMILES |
| --- | --- |
| 59 to 62 °C | CCCC=Cc1c(C(C)C)nc(C(C)C)c(CO)c1-c1ccc(F)cc1F |
| 234 to 235 °C | COc1cc2ncnc(Nc3ccc(OCc4ccccn4)c(C)c3)c2cc1O |
| 149 to 150 °C | CCCCCCCCCNC(=O)Nc1ccccc1C(=O)NC1CCN(C(c2ccccc2)c2ccccc2)CC1 |
| 254 to 255 °C | Cc1cc(O)nc2c1c(C)nn2-c1ccccn1 |
| 149 to 151 °C | CC(=O)Oc1ccc2ncnc(Nc3ccc(OCc4ccccn4)c(C)c3)c2c1 |
| 142 to 143 °C | NC1=CC(=O)CC(c2ccsc2)C1 (configuration not stated) |
| 144 to 146 °C | S=C(Nc1cccc(Cl)c1)N1CCCSC1c1ccc(Br)cc1 (configuration not stated) |
| 102 to 104 °C | COc1cc(C(=O)CS(C)=O)c(N)c(OC)c1OC (configuration not stated) |
| 263 to 264 °C | COc1ccc(-n2cc(/C=C(\C#N)C(=O)NS(=O)(=O)c3ccccc3)c(-c3ccc(Cl)c(F)c3)n2)cc1Cl |
| 122 to 124 °C | CCC12CCC3=C(CC(C)c4cc(OC)ccc43)C1CCC21OCCO1 (configuration not stated) |
| 105 °C | CN(CCCCNC(=O)c1cc2ccccc2s1)C1CCc2ncsc2C1 (configuration not stated) |
| 228 °C | CC(C)CN1CCCC[C@H]1CNc1nc(Oc2cccc3[nH]c(=O)c(N)nc23)cc(-c2ccc(C(F)(F)F)cc2)n1 |
| 74 to 75 °C | OCC1CCCc2scnc21 (configuration not stated) |
| 172 to 173 °C | COC(=O)C=Cc1ccc2[nH]c(C)cc2c1 |
| 60 to 64 °C | COC(=O)Cc1ccc(OCCNC(=O)C2Cc3ccccc3N2S(=O)(=O)c2ccc(-c3ccc(F)cc3F)cc2)cc1 (configuration not stated) |
| 116 to 122 °C | COc1ccc(OCc2ccccn2)cc1/C=C/c1cc(/C=C/c2ccc3[nH]ccc3c2)n[nH]1 |
| 196 to 198 °C | CCN(CC)C(=O)Nc1c(C(=O)c2ccccc2)[nH]c2cc(Cl)ccc12 |
| 153 to 154 °C | CCC(=O)N1CCC(NC(=O)Nc2cccc(C(F)(F)F)c2)CC1 |
| 172 to 175 °C | COc1nsc2nc3ccccc3n12 |
| 180 to 183 °C | [N-]=[N+]=NC1CC(n2cnc3c(N4CCCC4)nc(N)nc32)OC1CO (configuration not stated) |
| 202 to 205 °C | Cc1cc(C2=NN(C(=O)N[C@H](C)c3ccccc3)[C@H](C)Cc3cc4c(cc32)OCO4)ccc1[N+](=O)[O-] |
| 105 to 107 °C | O=C(Nc1ccc(Cl)cn1)c1cc(Cl)ccc1NCC1CCN(C(=O)N2CCOCC2)CC1 |
| > 210 °C | O=c1n(-c2cc(O)c(Cl)cc2F)nc2ccc(Cl)cn12 |
| 144 to 145 °C | CCS(=O)(=O)NC1CCCOc2c(C)cc(Cl)cc21 (configuration not stated) |

| melting point | SMILES |
| --- | --- |
| 263 °C | CC(C)(C)c1cc(Cn2nc(C=Cc3nn(Cc4cc(C(C)(C)C)c(O)c(C(C)(C)C)c4)c(=O)o3)oc2=O)cc(C(C)(C)C)c1O |
| 231 to 233 °C | COc1cc2c(Nc3ccc(Sc4ccccn4)cc3)c(C#N)cnc2cc1F |
| 127 °C | COc1ccc(NCCCOc2ccc3ccc(OCCCNc4ccc(OC)cc4)cc3c2)cc1 |
| 237 to 238 °C | O=c1cc(-c2n[nH]c3ccccc23)oc2ccccc12 |
| 85 to 87 °C | CSC(=NCCSCc1ccsn1)NC#N |
| 76 °C | CC(=O)SCC(=Cc1ccc2c(c1)OCO2)C(=O)NCCC(=O)OCc1ccccc1 |
| 142 to 144 °C | CC(=O)Oc1ccc(S(=O)(=O)c2cnc(C)nc2Nc2c(C)cc(C)cc2C)cc1 |
| 182 °C | CCOCCN(c1cccc2cc(C(N)=S)[nH]c12)S(=O)(=O)c1cccs1 |
| 153 to 155 °C | CCOC(=O)c1c(SC)nc(-c2ccc(SC)cc2)n(-c2ccc(C)cc2)c1=O |
| 149 to 150 °C | N#CCCNC(=O)c1cccc(-c2cccc(Oc3cc(Cl)ccc3Cl)n2)c1 |
| 85 to 91 °C | Cc1cc(C)c(-c2nc(Cl)nc(Cl)n2)c(C)c1 |
| 110 °C | COCCOc1cc(Oc2ccc(C(F)(F)F)cn2)ccc1CCCOc1cc(CCC(=O)O)n(C)n1 |
| 150 °C | Cc1ccc2[nH]c(=O)n(CCCN3CCC(C(=O)c4ccc(F)cc4)CC3)c2c1 |
| 76 to 82 °C | OCCOc1ccc(O)c(Cl)c1 |
| 209 to 211 °C | Ic1ccc2c(c1)ncn2-c1cccc(-n2cccn2)c1 |
| 65 to 70 °C | CCOC(=O)NN=C(c1ccc(Cl)cc1)c1ccc(CS(C)=O)cc1 (configuration not stated) |
| 115 to 117 °C | COC(=O)c1cc(NC(=O)C2=C(C)OCCS2)ccc1Cl |
| 251 to 253 °C | NC1([C@@H]2CCN(c3ccc4c(=O)c(C(=O)O)cn([C@@H]5C[C@@H]5F)c4c3)C2)CC1 |
| 231 to 233 °C | Cc1c(CC(=O)O)c2cc(OCc3ccccn3)ccc2n1Cc1ccc(Cl)cc1 |
| 58.7 to 60.3 °C | CCCCCCCCCCc1csc2c1S(=O)(=O)c1c(CCCCCCCCCC)csc1-2 |
| 54 °C | CCOC(=O)C(C(=O)OC(C)C)=C1SC=CS1 |

| SMILES | melting point |
| --- | --- |
| NC(=O)OCc1ccc(CNC(=O)[C@@H](CCCNC(N)=N[N+](=O)[O-])NC(=O)C(c2ccccc2)c2ccccc2)cc1 | 130 to 132 °C |
| C=C(C)C(=O)O[C@H]1C[C@@H](C(=O)OC)[C@]2(C)CC[C@H]3C(=O)O[C@H](c4ccoc4)C[C@]3(C)[C@H]2C1=O | 196 to 199 °C |
| c1ccc2c(c1)-c1nccc3ccnc-2c13 | 152 to 153 °C |
| O=C(NCCN1CCC2(CC1)C(=O)NCN2c1ccccc1)c1ccco1 | 196 °C |
